Source: PMC4569406, “Identification of Tetraazacyclic Compounds as Novel Potent Inhibitors Antagonizing RORγt Activity and Suppressing Th17 Cell Differentiation” (PLoS ONE, 2015)
“Also recorded” adds a separate entry of the source.

Columns and labels:
IL-17A secretion = IL-17A secretion by ELISA under Th17 polarizing conditions; type: cell-based, mouse; settings: 5 μM; for IL-17A concentration in supernatant / reduction of IL-17A secretion vs vehicle-treated control cells: Th17 polarizing conditions, ELISA
Description: (§1) CD4^+CD25^- T cells were isolated from spleens of 12-week-old C57BL/6 as follows: single-cell suspensions were made by crushing the spleen through a cell strainer, and red blood cells (RBCs) were lysed with an RBC lysis buffer. CD4^+ T cells were then purified using MACS magnetic cell column with a CD4^+ T cell isolation kit (Miltenyi, Biotec) according to the manufacturer’s protocol. Isolated cells were fluorescently stained with PE-conjugated anti-mouse TCR-βAb, PE-Cy7-conjugated anti-mouse CD4 Ab and APC-conjugated anti-mouse CD25 Ab (BD Bioscience, USA) and analyzed by flow cytometry.
(§2) The isolated CD4^+CD25^- T cells (3x10^6) were cultured under Th17 conditions. […] Specifically, the isolated CD4^+CD25^- T cells (3x10^6) were stimulated (in 6-well plates) with 5 μg/ml plate-bound anti-CD3e antibody (eBioscience, USA) and 2 μg/ml soluble anti-CD28 Ab (eBioscience, USA) for 24 hours. Then the activated cells were collected, resuspended and seeded into 96-well round-bottom plates (2x10^4) for Th17 differentiation in the presence of 5 ng/ml recombinant human TGF-β, 30 ng/ml recombinant mouse IL-6 (R&D systems) and DMSO as control or hit compounds with a final concentration of 5 μM. The cells were cultured for 2 days. Later, fresh medium was added (100ul/well) containing recombinant human TGF-β, recombinant mouse IL-6 (R&D systems) and the hit compounds as previously introduced for culturing another 2 days.
After 5 days of culture, the concentration of IL-17A in the supernatant was determined by an ELISA kit according to the manufacturer’s protocol (CUSABIO Systems, China).

RORγt-LBD [1] = biological target: T1, RORγt-LBD (Homo sapiens, UniProt P51449); assay: Gal4-RORγtLBD luciferase reporter assay in RORγt+-Jurkat stable cells (HTS / EC50 assay); type: cell-based; parameters: Human RORγtLBD was amplified from cDNA of human PBMC; expressed in transfected cells; host or cells: Jurkat cells stably carrying pGL4.31[luc2P/GAL4UAS/Hygro], GFP-sorted; settings: for EC50: 5 μM to 8 nM 5-fold gradient, read-out: EC50 (anti-RORγt activity, relative luciferase activity)
T1 sequence (P51449 269-508 limits assumed): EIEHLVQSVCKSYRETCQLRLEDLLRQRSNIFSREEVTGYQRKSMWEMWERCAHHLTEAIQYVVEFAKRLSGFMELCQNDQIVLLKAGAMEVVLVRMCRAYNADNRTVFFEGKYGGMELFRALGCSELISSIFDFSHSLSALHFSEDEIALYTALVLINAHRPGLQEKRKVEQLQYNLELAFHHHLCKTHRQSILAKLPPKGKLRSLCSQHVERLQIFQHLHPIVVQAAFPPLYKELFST
Description: (§3) The pGL4.31[luc2P/GAL4UAS/Hygro] reporter plasmid and the pBIND vector were purchased from Promega (USA). The fragment of IRES-GFP was first inserted into NotI sites of pBIND. Human RORγtLBD was amplified from cDNA of human PBMC (cDNA is provided by Dr. Hui Zhang) and then cloned into the pBIND-IRES-GFP to generate the fusion sequence Gal4DBD-RORγtLBD-IRES-GFP. The primers that were used to construct the pBIND-Gal4DBD-RORγtLBD-IRES-GFP plasmid are shown as follows: RORγtLBD forward 5’- […]-3’, reverse 5’- […] -3’.
(§4) Similar to the above procedure, to obtain the needed Jurkat-RORγt reporter cell lines, a total of 1x10^7 Jurkat cells were transfected with 20 μg pGL4.31 reporter plasmids by electroporation (Lonza, Swiss) according to the manufacturer’s instructions. The transfected Jurkat cells were also selected in RPMI 1640 medium containing 200 μg/mL hygromycin B. And then the 20 μg PBIND-RORγtLBD-IRES-GFP plasmids were also transfected into the stable Jurkat clone and were sorted by GFP. GFP^+-Jurkat stable cell purity was determined >96% by flow cytometry analysis and GFP^--Jurkat stable cells were also sorted (Fig 1).
RORγt^+-Jurkat stable cells (2x10^4) were seeded into 96-well round-bottom plates (Corning, Costar)and incubated in RPMI1640 complete medium overnight. At initial round screening, drug-like set compounds (Enamine, Monmouth Jct, NJ) were added using a Tecan Freedom EVO150 (Tecan, Männedorf, Schweiz) with a final concentration of 50 μM, which used by other research. 50 μM concentration is pretty high in drug screening and always raises many false positive. To reduce these false positive, we reduced the compounds concentration to 5 μM in the second round validation screening. Column 12 of each plate received only DMSO instead of any compounds as a negative control. In addition, column 1 of each plate was treated with 100 nM PMA (Sigma-Aldrich, USA) as a positive control. 6 hours later, the cells were then lysed and assayed for luciferase activity (Promega, USA) following the manufacturer’s instructions.
Jurkat-RORγt^+ stable cells were seeded into 96-well round-bottom plates (2x10^4) overnight and incubated with the compounds by 5-fold gradient, with final concentrations from 5μM to 8nM. 6h later, the cells were then lysed and assayed for luciferase activity (Promega, USA) following the manufacturer’s instructions. The values of half-maximal effective concentration (EC50) were determined by plotting the logarithm of compound concentration versus relative luciferase activity.
The EC50 and CC50 of all three compounds were determined to further identify the effects of these three tetraazacyclic compounds. […] The CC50 values of each compound in Jurkat cells were also determined as previously described in the methods section.

[2] = Cell viability (MTT) assay; type: cell-based; settings: human, wild type Jurkat cells, highest concentration 5 μM
Method: The cell viabilities of Jurkat cells (wild type) after treatment with chemicals were assessed by MTT technique. In brief, wild type Jurkat cells were seeded (2x10^4) and incubated with the compounds by 5-fold gradient concentrations, as described above. 48h treatment later, MTT (Dimethylthiazolyl-2-5-diphenyltetrazolium bromide) dye solution (Sigma, USA) was added into the 96-well plate and incubated at 37°C for 4 h, MTT is cleaved by live cells to a colored formazan product. After centrifugation (1500rpm, 5min) the supernatant was discarded. 100μl DMSO was added to dissolve the formazan product and gently shaken for 10min. Absorbance at 570 nm wavelength was recorded using a Thermo Scientific Multiskan FC (Thermo Scientific, USA). Each treatment was repeated in quadruplicate. Cell viabilities were defined relative to control cells (DMSO treated). The half-maximal cytotoxic concentration (CC50) for each compound was calculated from these dose-response curves with the aid of Graphpad Prism software (GraphPad Software, CA).

[3] = tested on: Th17 cell differentiation; assay: Th17 differentiation of mouse CD4+CD25- T cells, qPCR of Rorγt, Il17a, Il17f; type: cell-based; settings: 5 μM, normalized to Gapdh; for attenuation of Il17a mRNA expression vs vehicle-treated control: Th17 polarizing conditions (TGF-β, IL-6); for suppression of Il17f mRNA expression: Th17 polarizing conditions
Description: as §1, §2
After 5 days of culture, splenocyte total RNA was extracted with TRIzol (Invitrogen, USA). Then about 1000ng total RNA was added to a 20 μL reaction volume for reverse transcriptions by the GoScript Reverse Transcription System (Promega, USA) according to the manufacturer’s instructions, followed by real-time quantification using GoTaq qPCR Master Mix (Promega, USA). Gene expression of mouse Rorγt, Il17a and Il17f was normalized to the expression of Gapdh. The following primer sequences were used: Rorc forward 5’-TGTAATGTGG CCTACTCCTGCA-3’, reverse 5’-[…]-3’; Il17a forward 5’-[…]-3’, reverse 5’-[…]-3’; Il17f forward 5’-[…]-3’, reverse 5’- […]-3’; Gapdh forward 5’-[…]-3’, reverse 5’-[…]-3’.

RORγt-LBD [4] = biological target: T1, RORγt-LBD; assay: Inhibition of RORγt activity in RORγt+-293T stable reporter cells (luciferase); type: cell-based
Description: as §3
The 4 μg pGL4.31 reporter plasmids (promega, USA) were transfected into 293T cells (1 x 10^6) with Lipofectamin^TM 2000 (Invitrogen, USA) according to the manufacturer’s instructions. The transfected cells were then selected in medium containing 100 μg/mL hygromycin B (Roche, USA) for 3 weeks to obtain a stable clone which express pGL4.31 reporter gene. Then 4 μg pBIND-RORγtLBD-IRES-GFP plasmids were also transfected into the stable clone. The second transfected cells were sorted by Green Fluorescent Protein (GFP). Through this process, we obtained the 293T-RORγt stable reporter cell line. GFP^+-293T stable cell purity was determined >96% by flow cytometry analysis, which yielded a RORγt^+-293T (RORγt-LBD positive 293T cells) stable reporter cell line, and GFP^--293T stable cells were also sorted and used as a RORγt negative control cell line (Fig 1).
RORγt^+-293T stable cells (1x10^4) were seeded into 96-well plates (Corning, Costar)and incubated in DMEM complete medium overnight. Then the candidates were added with a final concentration of 5 μM. Negative control (DMSO) and positive control were carried on as HTS. 6 hours later, the cells were then lysed and assayed for luciferase activity (Promega, USA) following the manufacturer’s instructions.

RORγt--Jurkat cells = assay: Luciferase reporter activity in RORγt--Jurkat (RORγt-LBD negative) control cells; type: cell-based; settings: different concentrations of PMA (100 nM, 10 nM, 1 nM), 4 and 6 hr
Method: as §4
RORγt^+-Jurkat (RORγt-LBD positive Jurkat cells) and RORγt^--Jurkat (RORγt-LBD negative Jurkat cells) stable cells (1x10^5) were seeded onto separate 12-well plates and cultured overnight. Cells were then stimulated with different concentrations of PMA (100 nM, 10 nM, 1 nM) or DMSO (negative control) for 4, 6, and 8 hr. […] Luciferase activity was highest in cells cultured with 100nM PMA, it was at approximately 40-fold over the DMSO control (Fig 2A and 2B). When RORγt^+-Jurkat cells were cultured for 6 hr, the luciferase activity was nearly identical across the concentrations and increased from control by about 40-fold at various concentrations (Fig 2D and 2E). […]

[5] = tested on: Th17 cell differentiation; parameters: method as in PMID 21499262, PMID 22769242; settings: cited from earlier work

EC50 (RORγt-LBD [1]; RORγt+-Jurkat cells, 6 hr)	inhibition of reporter activity in RORγt+-293T cells (RORγt-LBD [4]; 5 μM, 6 h, vs vehicle control)	inhibition at 5 µM (RORγt-LBD [1]; 5 μM, 6 hr, vs vehicle control)	inhibition at 5 µM (RORγt-LBD [4]; 5 μM, 6 h, vs vehicle control)	SMILES	IL-17A concentration in supernatant (IL-17A secretion)	reduction of IL-17A secretion vs vehicle-treated control cells (IL-17A secretion)	CC50 at 48 h [2]	attenuation of Il17a mRNA expression vs vehicle-treated control [3]	suppression of Il17f mRNA expression [3]	luciferase activity, fold over DMSO control (RORγt-LBD [1]; RORγt+-Jurkat cells, 100 nM PMA, 4 hr)	luciferase activity, fold increase from control (RORγt-LBD [1]; RORγt+-Jurkat cells, 100 nM, 10 nM, 1 nM PMA, 6 hr)	luciferase activity in RORγt--Jurkat cells (RORγt--Jurkat cells)	greatest increase in luciferase activity vs DMSO (RORγt-LBD [4]; RORγt+-293T cells, 100 nM PMA, 4 hr and 6 hr)	activity in Th17 cell differentiation study [5]	suppression / reduction in IL-17A production (Discussion summary) (IL-17A secretion; mouse Th17 differentiation, for 11 and 14 both mRNA expression and protein secretion)
250 nM	significantly less inhibition			Cc1ccccc1-n1nnnc1Sc1ccnc2cc(Cl)ccc12 [compound 11, 7-chloro-4-[1-(2-methylphenyl)tetrazol-5-yl]sulfanylquinoline]	136 pg/mL	63%	> 5000 nM	65%-80%	90%						
				CCCCCCCCCCCCCC(=O)O[C@@H]1[C@@H](C)[C@@]2(O)[C@@H](C=C(CO)C[C@]3(O)C(=O)C(C)=C[C@@H]23)[C@@H]2C(C)(C)[C@]12OC(C)=O [PMA, phorbol-12-myristate-13-acetate, reference compound]						approximately 40 fold	approximately 40 fold	no significant increase	4–6 folds		
				CC(=O)Nc1nc(C)c(S(=O)(=O)Nc2ccc(C(O)(C(F)(F)F)C(F)(F)F)cc2)s1 [SR1001]										relatively weak activity	
2600 nM		75%	95%	CCN(CC)Cc1nc(Sc2nnnn2-c2ccccc2)c2c(C)c(C)sc2n1 [compound 7, N-[[5,6-dimethyl-4-(1-phenyltetrazol-5-yl)sulfanylthieno[3,2-e]pyrimidin-2-yl]methyl]-N-ethylethanamine]	196 pg/mL	47%	1500 nM	65%-80%	87%						~ 50%
670 nM	significantly less inhibition			Cc1cccc(C)c1-n1nnnc1Sc1ncnc2ccsc12 [compound 14, 4-[1-(2,6-dimethylphenyl)tetrazol-5-yl]sulfanylthieno[3,2-d]pyrimidine]	88 pg/mL	74%	> 5000 nM	65%-80%	did not significantly inhibited; also recorded: no significant inhibition						
